Several values for one entry are separate records, joined by “and”; a condition that tells them apart may be missing. Equal entries are not always repeated. Entries after “also recorded” stand apart in the source; their conditions may differ.
Columns and labels:
[1] = human, in vivo; cited from earlier work
[2] = tested on: Immunoglobulin levels (IgG, IgA and IgM); assay: First observational study: serum immunoglobulin levels by nephelometry, clozapine-treated vs clozapine-naive patients; format: in vivo, human
[3] = tested on: collagen-induced arthritis (CIA); assay: Mouse collagen-induced arthritis (CIA) model: onset, clinical score and paw-swelling; format: in vivo, DBA/1 mice
From the text: Adult (age 13-15 weeks) DBA/1 male mice were purchased from Envigo (Horst, Netherlands). […] 1. […] All experiments were approved by the Clinical Medicine Animal Welfare and Ethical Review Body (AWERB) and by the UK Home Office. DBA/1 mice were immunised with bovine type II collagen in CFA and monitored daily for onset of arthritis. […] Controls received vehicle (saline) alone. Treatment of mice commenced in one experiment on day 1 after immunisation and in a second experiment on day 15 after immunisation. Clinical scores and paw-swelling were monitored for 10 days following onset of arthritis. A clinical scoring system was used as follows. Arthritis severity was scored by an experienced, non-blinded investigator as follows: 0=normal, 1=slight swelling and/or erythema, 2=pronounced swelling, 3=ankylosis. […] Data were analyzed by one-way ANOVA with Tukey's or Dunnett's multiple comparison test or two-way ANOVA with Tukey's multiple comparison test as appropriate. All calculations were made using GraphPad Prism software.

[4] = tested on: total peripheral blood B-cells isolated from healthy donors; format: cell-based, human; conditions: clozapine 25-350 ng/ml, norclozapine 15-200 ng/ml, haloperidol 2-25 ng/ml
Procedure: The experiment was performed from four independent donors.

[5] = tested on: Vaccine specific-IgG (Haemophilus influenza B, Pneumococcus, Tetanus); conditions: human, in vivo
[6] = tested on: T follicular helper cells and T regulatory cells; assay: Mouse CIA model: T follicular helper and T regulatory cells in spleen and lymph node by flow cytometry; format: in vivo, DBA/1 mice
[7] = tested on: anti-type II collagen IgG1 and IgG2a; assay: Mouse CIA model: specific anti-collagen immunoglobulin by ELISA; format: in vivo, DBA/1 mice
[8] = tested on: circulating B cell subsets; assay: Second observational study (interim analysis): circulating B cell subsets by FACS; format: in vivo, human
[9] = tested on: B cell subsets and T cells in spleen; assay: Wild type mouse study: spleen immunophenotyping by flow cytometry
[10] = tested on: B cell subsets in spleen and inguinal lymph nodes; assay: Mouse CIA model: B cell subsets in spleen and lymph nodes by FACS; format: in vivo, DBA/1 mice
[11] = tested on: circulating total IgG, IgA and IgM; assay: Second observational study (interim analysis): circulating immunoglobulins and pneumococcal-specific IgG; format: in vivo, human
[12] = mouse, in vivo
[13] = sub-group A: all diagnoses, all smoking, secondary causes not excluded, n=123
[14] = sub-group A: all diagnoses, all smoking, secondary causes not excluded, n=123, listed as clozapine
[15] = sub-group B: possible secondary causes excluded, n=94
[16] = sub-group C: schizophrenia diagnoses only, secondary causes excluded, n=87
[17] = sub-group D: smokers only, secondary causes excluded, n=57

Compound: CN1CCN(C2=Nc3cc(Cl)ccc3Nc3ccccc32)CC1 [Clozapine, clozapine]
- Previously treatment refractive schizophrenia patients in whom effective [1]: approximately 60%
- Concentrations / distribution of serum IgG, IgA and IgM vs clozapine-naive control group ([2]; FIG. 1A-D): significantly reduced; also recorded: leftward shift (reduction)
- Effect of duration of clozapine therapy on serum IgG levels ([2]; p 0.014, not observed in clozapine-naive patients): associated with lower serum IgG levels; also recorded: progressively reduced IgG levels
- Serum IgA <0.5 g/L, percentage of patients [2, 13]: 1.6%
- Serum IgA <0.6 g/L, percentage of patients [2, 13]: 2.4%
- Serum IgA <0.7 g/L, percentage of patients [2, 13]: 6.5%
- Serum IgA <0.8 g/L (below reference range 0.8-4.0 g/L), percentage of patients [2, 13]: 13.1% and 13.0%
- Serum IgG <3 g/L, percentage of patients [2, 13]: 0.8%
- Serum IgG <4 g/L, percentage of patients [2, 13]: 1.6%
- Serum IgG <5 g/L, percentage of patients [2, 13]: 3.3%
- Serum IgG <6 g/L (below reference range 6-16 g/L), percentage of patients [2, 13]: 9.8%
- Serum IgM <0.2 g/L, percentage of patients [2, 13]: 8.1%
- Serum IgM <0.3 g/L, percentage of patients [2, 13]: 16.3%
- Serum IgM <0.4 g/L, percentage of patients [2, 13]: 29.3%
- Serum IgM <0.5 g/L (below reference range 0.5-1.9 g/L), percentage of patients [2, 13]: 38.2%
- Serum IgA <0.8 g/L (below reference range 0.8-4.0 g/L), percentage of patients [2, 14]: 13.0%
- Serum IgG <6 g/L (below reference range 6-16 g/L), percentage of patients [2, 14]: 9.8%
- Serum IgM <0.5 g/L (below reference range 0.5-1.9 g/L), percentage of patients [2, 14]: 38.2%
- Serum IgA <0.5 g/L, percentage of patients [2, 15]: 2.1%
- Serum IgA <0.6 g/L, percentage of patients [2, 15]: 2.1%
- Serum IgA <0.7 g/L, percentage of patients [2, 15]: 6.4%
- Serum IgA <0.8 g/L (below reference range 0.8-4.0 g/L), percentage of patients [2, 15]: 13.8%
- Serum IgG <3 g/L, percentage of patients [2, 15]: 1.1%
- Serum IgG <4 g/L, percentage of patients [2, 15]: 1.1%
- Serum IgG <5 g/L, percentage of patients [2, 15]: 2.1%
- Serum IgG <6 g/L (below reference range 6-16 g/L), percentage of patients [2, 15]: 8.4%
- Serum IgM <0.2 g/L, percentage of patients [2, 15]: 5.3%
- Serum IgM <0.3 g/L, percentage of patients [2, 15]: 12.8%
- Serum IgM <0.4 g/L, percentage of patients [2, 15]: 26.6%
- Serum IgM <0.5 g/L (below reference range 0.5-1.9 g/L), percentage of patients [2, 15]: 34.0%
- Serum IgA <0.5 g/L, percentage of patients [2, 16]: 2.3%
- Serum IgA <0.6 g/L, percentage of patients [2, 16]: 3.5%
- Serum IgA <0.7 g/L, percentage of patients [2, 16]: 6.9%
- Serum IgA <0.8 g/L (below reference range 0.8-4.0 g/L), percentage of patients [2, 16]: 14.9%
- Serum IgG <3 g/L, percentage of patients [2, 16]: 1.2%
- Serum IgG <4 g/L, percentage of patients [2, 16]: 1.2%
- Serum IgG <5 g/L, percentage of patients [2, 16]: 2.3%
- Serum IgG <6 g/L (below reference range 6-16 g/L), percentage of patients [2, 16]: 9.2%
- Serum IgM <0.2 g/L, percentage of patients [2, 16]: 5.8%
- Serum IgM <0.3 g/L, percentage of patients [2, 16]: 12.6%
- Serum IgM <0.4 g/L, percentage of patients [2, 16]: 27.6%
- Serum IgM <0.5 g/L (below reference range 0.5-1.9 g/L), percentage of patients [2, 16]: 35.6%
- Serum IgA <0.5 g/L, percentage of patients [2, 17]: 3.5%
- Serum IgA <0.6 g/L, percentage of patients [2, 17]: 3.5%
- Serum IgA <0.7 g/L, percentage of patients [2, 17]: 3.5%
- Serum IgA <0.8 g/L (below reference range 0.8-4.0 g/L), percentage of patients [2, 17]: 10.5%
- Serum IgG <3 g/L, percentage of patients [2, 17]: 1.8%
- Serum IgG <4 g/L, percentage of patients [2, 17]: 1.8%
- Serum IgG <5 g/L, percentage of patients [2, 17]: 1.8%
- Serum IgG <6 g/L (below reference range 6-16 g/L), percentage of patients [2, 17]: 8.8%
- Serum IgM <0.2 g/L, percentage of patients [2, 17]: 1.78%
- Serum IgM <0.3 g/L, percentage of patients [2, 17]: 12.3%
- Serum IgM <0.4 g/L, percentage of patients [2, 17]: 26.3%
- Serum IgM <0.5 g/L (below reference range 0.5-1.9 g/L), percentage of patients [2, 17]: 33.3%
- Swelling of the first affected paw ([3]; 10 mg/kg from day 1): reduced
- Onset of arthritis post-immunisation ([3]; 5 or 10 mg/kg IP daily from day 1 or day 15): significantly effective in delaying the onset of arthritis
- Arthritis onset, treatment from day 1 ([3]; both doses (5, 10 mg/kg) from day 1): extremely effective in delaying arthritis onset
- Overall clinical score ([3]; both doses, administered on day 1): reduced
- Incidence of CIA ([3]; most apparent when dosed just after CII immunisation, FIG. 26): reduces the incidence
- Total number of affected paws compared to vehicle control ([3]; significant with dosing at D1): reduced
- Functional or phenotypic maturation of activated B cells to an early PC state [4]: no consistent inhibitory effect
- Ability of differentiated ASCs to secrete antibody (total IgM/IgG ELISA) ([4]; day 6 and day 9): no consistent effect
- Failed to develop an IgG response above >=50 mg/L following Pneumovax II [5]: 73%
- Failing to exceed the >=0.1 IU/mL post-vaccination Tetanus-IgG level [5]: 1/12
- Failing to mount a Haemophilus-IgG response >=1 mcg/ml post-Menitorix (HiB/MenC) vaccination [5]: 42%
- IgG to Haemophilus influenza B (HiB) <1 mcg/ml at initial assessment, patients [5]: 75%
- Pneumococcus-IgG <50 mg/L at initial assessment, patients [5]: 94%
- Response to haemophilus and/or pneumococcal vaccination, individual referred patient [5]: Failure to responds to; also recorded: Durable pneumococcal; also recorded: Non-durable
- Responses to vaccination impaired, patients / patients assessed [5]: 10/11
- Tetanus-IgG <0.1 IU/mL at initial assessment, patients [5]: 38%
- Proportions of CD4+PD1+CXCR5+ T follicular helper cells in lymph node or spleen ([6]; 5 or 10 mg/kg from day 1 or day 15): did not significantly affect
- Expression of PD-1 (MFI) in lymph node T follicular helper cells ([6]; all doses and time points): Reduced expression
- Expression of CD25 on Tregs ([6]; dosed from day 1): significantly upregulate
- Foxp3 expression on Tregs ([6]; dosed from day 1): not alter
- CXCR5 expression (MFI) on T follicular helper cells ([6]; dosed from day 1, lymph node and spleen): significant reductions
- Proportion of CD4+CD25+Foxp3+ T regulatory cells (Tregs) ([6]; higher dose tested, from day 1, lymph node and spleen): increase the proportion
- Expression of CCR7 on T follicular helper cells ([6]; lymph node and spleen): reduced expression
- Reduction of anti-type II collagen IgG1 ([7]; 10 mg/kg from day 15): reaching statistical significance
- Serum anti-type II collagen IgG2a ([7]; 5 or 10 mg/kg from day 1 or day 15, single time point): no significant impact
- Levels of anti-type II collagen IgG1 ([7]; across all doses tested): nominal reductions
- Overall CD19+ B cell numbers vs control ([8]; FIG. 8A-B): not significantly different
- Naive (CD19+ CD27-) B cells as a proportion of total CD19+ B cells ([8]; FIG. 9A-C): Small increase
- Overall memory B cell pool or IgMhi IgDlo memory B cell subpopulation ([8]; FIG. 10A-C, 12A-C): without perturbation
- Circulating levels of transitional B cells or marginal zone B cells ([8]; FIG. 13A-C, 14A-C): No significant difference
- Class-switched memory B cells (CD27+ IgM- IgD- as % B) ([8]; P=0.06 vs control, FIG. 11A-C): Strong trends to a specific reduction
- Levels of plasmablasts ([8]; P=0.07 vs control clozapine naive, FIG. 15A-C): Strong trends to reduction
- Other splenic cell populations (B220-TCR-b-) ([9]; 5 mg/kg and 10 mg/kg): No effect
- Percentage of splenic T cells ([9]; 5 mg/kg and 10 mg/kg): reciprocal increase
- Percentage of splenic B cells (B220+TCR-b-) as a proportion of total live splenocytes ([9]; 5 mg/kg and 10 mg/kg IP, 21 days): significantly lower
- Proportion of T2 B cells in the spleen ([9]; across all doses of clozapine): small increase
- Activated T cells (B220+TCR-b+) in spleen vs control ([9]; clozapine 2.5-10 mg/kg): reduced in dose-dependent fashion
- Splenic follicular or marginal zone B cell subsets ([9]; clozapine IP, 21 days): no specific reductions
- Proportion of transitional stage 1 (T1) B cells in the spleen ([9]; including at the 2.5 mg/kg dose): mildly reduced
- Germinal centre cells in the spleen vs control or haloperidol ([9]; steady state): no differences
- Proportion of B220+ B cells in spleen ([10]; 10 mg/kg from day 1): significantly reduced
- Proportion of plasma cells in spleen ([10]; 10 mg/kg given on day 1): significant reduction
- Level of GL7 expression on follicular B cells in lymph node ([10]; all clozapine treatment groups vs vehicle, dose- and time-dependent): significantly decreased
- Percentage of B220+ B cells in lymph nodes ([10]; all doses and time points (5 or 10 mg/kg from day 1 or day 15)): significantly lower
- Lymph node follicular B cells (B220+IgD-Fas+GL7hi) ([10]; all doses/both time points): Strikingly significant reductions
- Plasma cell numbers in lymph node ([10]; all doses/times): no significant effect
- Plasma cells as a proportion of live cells in spleen compared to control ([10]; every other dose/time evaluated): nominally lower values
- Levels of circulating total IgG, IgA and IgM vs clozapine naive ([11]; FIG. 6A-C): Significantly reduced
- IgG antibodies against pneumococcus vs clozapine naive ([11]; FIG. 7): trend to lower
- Effects on thermoregulation [12]: effects on thermoregulation were also evident
- Sedative effects ([12]; ip, 5 mg/kg): Clear dose-related sedative effects

Reference: US20210236512A1 (ZARODEX THERAPEUTICS LIMITED, priority 2018, published 2021)
